Assay results: patent US9765075B2, “Substituted bridged urea analogs as sirtuin modulators” (GLAXOSMITHKLINE LLC, priority 2013, dated 2017)
Read-outs that look alike come from different tables or passages of the source.

Target: T1, SIRT1 (Homo sapiens, UniProt Q96EB6)
T1 sequence (Q96EB6 1-747): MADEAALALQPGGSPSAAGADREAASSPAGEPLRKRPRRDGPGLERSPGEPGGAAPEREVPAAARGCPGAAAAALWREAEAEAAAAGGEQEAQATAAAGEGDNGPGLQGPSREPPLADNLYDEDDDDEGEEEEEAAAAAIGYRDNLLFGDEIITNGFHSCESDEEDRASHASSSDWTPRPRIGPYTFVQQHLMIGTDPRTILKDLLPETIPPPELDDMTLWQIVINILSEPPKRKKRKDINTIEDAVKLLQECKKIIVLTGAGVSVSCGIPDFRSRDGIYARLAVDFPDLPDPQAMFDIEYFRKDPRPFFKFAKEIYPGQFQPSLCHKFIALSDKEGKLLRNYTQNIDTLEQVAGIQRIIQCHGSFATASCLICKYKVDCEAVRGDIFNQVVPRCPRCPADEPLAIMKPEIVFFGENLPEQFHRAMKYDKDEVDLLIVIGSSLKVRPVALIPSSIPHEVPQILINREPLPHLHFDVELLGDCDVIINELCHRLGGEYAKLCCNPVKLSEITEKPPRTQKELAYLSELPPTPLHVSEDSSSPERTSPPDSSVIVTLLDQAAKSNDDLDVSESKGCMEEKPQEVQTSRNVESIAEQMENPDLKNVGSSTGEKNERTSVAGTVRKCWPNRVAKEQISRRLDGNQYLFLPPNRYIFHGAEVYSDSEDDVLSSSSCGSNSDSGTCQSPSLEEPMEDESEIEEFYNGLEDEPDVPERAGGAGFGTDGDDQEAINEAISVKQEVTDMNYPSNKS
Test: Trp mass spectrometry assay (SIRT1 activation)
Type: biochemical
Conditions: for Emax: percent maximum fold activation of SIRT1, read-out: Tryp % Fold Act
From the text: Mass spectrometry based assays were used to identify modulators of SIRT1 activity. […] The peptide was labeled with the fluorophore 5TMR (excitation 540 nm/emission 580 nm) at the C-terminus. The sequence of the peptide substrate was based on p53 with several modifications. In addition, the methionine residue naturally present in the sequence was replaced with the norleucine because the methionine may be susceptible to oxidation during synthesis and purification. The Trp based assay utilized a peptide having an amino acid residues as follows: Ac-R-H-K-K(Ac)-W-NH2 (SEQ ID NO: 2).
The Trp mass spectrometry assay was conducted as follows. 0.5 μM peptide substrate and 120 μM βNAD^+ were incubated with 10 nM SIRT1 for 25 minutes at 25° C. in a reaction buffer (50 mM HEPES pH 7.5, […] NaCl, 1 mM DTT, 0.05% BSA). The SIRT1 protein was obtained by cloning the SirT1 gene into a T7-promoter containing vector, which was then expressed in BL21(DE3) bacterial cells and purified as described in further detail below. Test compound was added at varying concentrations to this reaction mixture and the resulting reactions were monitored. After the 25 minute incubation with SIRT1, 10 μL of 10% formic acid was added to stop the reaction. The resulting reactions were sealed and frozen for later mass spec analysis. The relative SIRT1 activity was then determined by measuring the amount of 0-acetyl-ADP-ribose (OAADPR) formed (or, alternatively, the amount of deacetylated Trp peptide generated) by the NAD-dependent sirtuin deacetylation reaction in the presence of varying concentrations of the test compound versus control reactions lacking the test compound. The degree to which the test agent activated deacetylation by SIRT1 was expressed as EC1.5 (i.e., the concentration of compound required to increase SIRT1 activity by 50% over the control lacking test compound), and Percent Maximum Activation (i.e., the maximum activity relative to control (100%) obtained for the test compound).
A control for activation of sirtuin activity was conducted using 10 nM of sirtuin protein, with 1 μL of DMSO in place of compound, to determine the amount of deacetylation of the substrate at a given time point within the linear range of the assay. This time point was the same as that used for test compounds and, within the linear range, the endpoint represents a change in velocity.
For the above assay, SIRT1 protein was expressed and purified as follows. The SirT1 gene was cloned into a T7-promoter containing vector and transformed into BL21(DE3). The protein was expressed by induction with 1 mM IPTG as an N-terminal His-tag fusion protein at 18° C. overnight and harvested at 30,000×g. Cells were lysed with lysozyme in lysis buffer (50 mM Tris-HCl, 2 mM Tris[2-carboxyethyl] phosphine (TCEP), 10 μM ZnCl2, 200 mM NaCl) and further treated with sonication for 10 min for complete lysis. The protein was purified over a Ni-NTA column (Amersham) and fractions containing pure protein were pooled, concentrated and run over a sizing column (Sephadex S200 26/60 global). The peak containing soluble protein was collected and run on an Ion-exchange column (MonoQ). Gradient elution (200 mM-500 mM NaCl) yielded pure protein. This protein was concentrated and dialyzed against dialysis buffer (20 mM Iris-HCl, 2 mM TCEP) overnight. The protein was aliquoted and frozen at −80° C. until further use.

[1] = concentration of test compound that results in 150% activation of SIRT1, Trp peptide substrate
[2] = Trp mass spectrometry assay, EC1.5 = concentration giving 150% activation of SIRT1
[3] = Trp mass spectrometry assay, EC1.5 = concentration of test compound that results in 150% activation of SIRT1

SMILES | Tryp AVG EC1.5 (μM) [1] | Emax (Trp peptide substrate) | Tryp AVG EC1.5 (μM) [2] | Emax (Trp mass spectrometry assay) | Tryp AVG EC1.5 (μM) [3]
N#Cc1ccccc1-c1ccc2c(n1)N(C(=O)Nc1cnccn1)[C@H]1CCCN2C1 [Example 450] | B (EC1.5 1-25 μM) | ≥ 150% | – | – | –
O=C(Nc1cccc(-c2cnco2)c1)N1c2nc(N3CCCN(CC(F)(F)F)CC3)ccc2N2CC[C@H]1C2 [Example 741] | – | – | A (EC1.5<1 μM) | ≥ 150% | –
O=C(Nc1cnccn1)N1c2nc(-c3cncc(Cl)c3)ccc2N2CC[C@H]1C2 [Example 275] | A (EC1.5<1 μM) | ≥ 150% | – | – | –
COc1cc(NC(=O)N2c3nc(-c4ccnc(N5CC[C@@H](F)C5)c4)ccc3N3CC[C@H]2C3)ncn1 [Example 424] | B (EC1.5 1-25 μM) | ≥ 150% | – | – | –
O=C(Nc1nnc(-c2cccnc2)o1)N1c2nc(-c3cccc(C(F)(F)F)c3)ccc2N2CC[C@H]1C2 [Example 721] | – | – | A (EC1.5<1 μM) | ≥ 150% | –
COc1nccc(NC(=O)N2c3nc(-c4cccc(Cl)c4)ccc3N3CC[C@H]2C3)n1 [Example 50] | – | – | – | ≥ 150% | –
CS(=O)(=O)c1cncc(-c2ccc3c(n2)N(C(=O)Nc2ccccn2)[C@H]2CCCN3C2)c1 [Example 375] | A (EC1.5<1 μM) | ≥ 150% | – | – | –
O=C(Nc1nccs1)N1c2nc(N3CCCC(C(F)(F)F)C3)ccc2N2CCC[C@@H]1C2 (stereo partly drawn) [Example 310] | B (EC1.5 1-25 μM) | ≥ 150% | – | – | –
O=C(Nc1cc[nH]c(=O)n1)N1c2nc(-c3cccc(C(F)(F)F)c3)ccc2N2CC[C@H]1C2 [Example 82] | – | – | – | ≥ 150% | –
O=C(Nc1ccncc1)N1c2nc(-c3cccc(C(F)(F)F)c3)ccc2N2CCC[C@H]1C2 [Example 821] | – | – | A (EC1.5<1 μM) | ≥ 150% | –
O=C(Nc1ccccn1)N1c2nc(-c3ccnc(N4CCC(C(F)(F)F)C4)c3)ccc2N2CC[C@H]1C2 (stereo partly drawn) [Example 367] | A (EC1.5<1 μM) | ≥ 150% | – | – | –
N#Cc1ccccc1-c1ccc2c(n1)N(C(=O)Nc1cccnc1)[C@H]1CCCN2C1 [Example 438] | B (EC1.5 1-25 μM) | ≥ 150% | – | – | –
CS(=O)(=O)c1cccc(-c2ccc3c(n2)N(C(=O)Nc2cc(-c4cnco4)ccn2)[C@H]2CCN3C2)c1 [Example 723] | – | – | A (EC1.5<1 μM) | ≥ 150% | –
CC(C)(C)OC(=O)N1CCc2cc(NC(=O)N3c4nc(-c5cccc(C(F)(F)F)c5)ccc4N4CC[C@H]3C4)ccc2C1 [Example 611] | A (EC1.5<1 μM) | ≥ 150% | – | – | –
O=C(CCCCCNC(=O)c1ccc2c(c1)C(=O)OC21c2ccc(O)cc2Oc2cc(O)ccc21)NCc1ncc(-c2cccc(NC(=O)N3c4nc(-c5cccc(C(F)(F)F)c5)ccc4N4CC[C@H]3C4)c2)o1 [Example 708] | – | – | A (EC1.5<1 μM) | ≥ 150% | –
Cc1cc(-c2ccc3c(n2)N(C(=O)Nc2ccccn2)[C@H]2CCN3C2)ccn1 [Example 220] | A (EC1.5<1 μM) | ≥ 150% | – | – | –
CN1CCN(c2ccnc(NC(=O)N3c4nc(-c5cccc(C(F)(F)F)c5)ccc4N4CC[C@H]3C4)n2)CC1 [Example 742] | – | – | A (EC1.5<1 μM) | ≥ 150% | –
O=C(Nc1cccc(-n2cncn2)c1)N1c2nc(-c3cccc(C(F)(F)F)c3)ccc2N2CC[C@H]1C2 [Example 581] | A (EC1.5<1 μM) | ≥ 150% | – | – | –
COc1cc(NC(=O)N2c3nc(-c4ccnc(N5CCC(C(F)(F)F)C5)c4)ccc3N3CC[C@H]2C3)ncn1 (stereo partly drawn) [Example 368] | B (EC1.5 1-25 μM) | ≥ 150% | – | – | –

SMILES | Tryp AVG EC1.5 (μM) [1] | Emax (Trp peptide substrate) | Tryp AVG EC1.5 (μM) [2] | Emax (Trp mass spectrometry assay) | Tryp AVG EC1.5 (μM) [3]
COc1cc(NC(=O)N2c3nc(-c4cncc(Cl)c4)ccc3N3CCC[C@H]2C3)ncn1 [Example 405] | A (EC1.5<1 μM) | ≥ 150% | – | – | –
N=C(N)NCc1ccc(NC(=O)N2c3nc(-c4cccc(C(F)(F)F)c4)ccc3N3CCC[C@H]2C3)cc1 [Example 777] | – | – | A (EC1.5<1 μM) | ≥ 150% | –
O=C(Nc1ccncn1)N1c2nc(-c3cncc(C(F)(F)F)c3)ccc2N2CCC[C@H]1C2 [Example 393] | A (EC1.5<1 μM) | ≥ 150% | – | – | –
O=C(Nc1cccc(C2(C(F)(F)F)N=N2)c1)N1c2nc(-c3cccc(C(F)(F)F)c3)ccc2N2CCC[C@H]1C2 [Example 335] | A (EC1.5<1 μM) | ≥ 150% | – | – | –
O=C(Nc1cccc(C2CCNC2)c1)N1c2nc(-c3cccc(C(F)(F)F)c3)ccc2N2CC[C@H]1C2 (stereo partly drawn) [Example 593] | A (EC1.5<1 μM) | ≥ 150% | – | – | –
O=C(Nc1ccccn1)N1c2nc(-c3cccc(C(F)(F)F)c3)ccc2N2CC(O)C1C2 (stereo not drawn) [Example 85] | – | – | – | ≥ 150% | –
O=C(Nc1ccnc(O[C@H]2CCOC2)n1)N1c2nc(-c3cccc(C(F)(F)F)c3)ccc2N2CC[C@H]1C2 [Example 16] | – | – | – | ≥ 150% | –
O=C(Nc1cnccn1)N1c2nc(-c3cccc(Cl)c3)ccc2N2CCC1CC2 [Example 543] | B (EC1.5 1-25 μM) | ≥ 150% | – | – | –
O=C(Nc1ccccn1)N1c2nc(-c3cccc(Cl)c3)ccc2N2CCC[C@H]1C2 [Example 387] | A (EC1.5<1 μM) | ≥ 150% | – | – | –
COc1cc(NC(=O)N2c3nc(-c4cccnc4)ccc3N3CCC[C@H]2C3)ncn1 [Example 442] | B (EC1.5 1-25 μM) | ≥ 150% | – | – | –
COc1cc(NC(=O)N2c3nc(-c4cccc(N5CCC(F)(F)C5)c4)ccc3N3CC[C@H]2C3)ncn1 [Example 256] | B (EC1.5 1-25 μM) | ≥ 150% | – | – | –
O=C(Nc1ccccn1)N1c2nc(-c3cccc(OC(F)(F)F)c3)ccc2N2CC[C@H]1C2 [Example 138] | – | – | – | ≥ 150% | A (EC1.5<1 μM)
COc1cccc(-c2ccc3c(n2)N(C(=O)Nc2ccccn2)[C@@H]2CCN3C2)c1 [Example 219] | B (EC1.5 1-25 μM) | ≥ 150% | – | – | –
O=C(Nc1cnccn1)N1c2nc(-c3cncc(C(F)(F)F)c3)ccc2N2CC[C@H]1C2 [Example 278] | A (EC1.5<1 μM) | ≥ 150% | – | – | –
Cc1csc2nc(NC(=O)N3c4nc(-c5cccc(C(F)(F)F)c5)ccc4N4CC[C@H]3C4)nn12 [Example 80] | – | – | – | ≥ 150% | –
Cc1cc(NC(=O)N2c3nc(N4CCCC(C(F)(F)F)C4)ccc3N3CC[C@H]2C3)cc(C)n1 (stereo partly drawn) [Example 231] | B (EC1.5 1-25 μM) | ≥ 150% | – | – | –
O=C(Nc1cnccn1)N1c2nc(-c3cccc(Cl)c3)cc(O)c2N2CC[C@H]1C2 [Example 443] | B (EC1.5 1-25 μM) | ≥ 150% | – | – | –
Cn1ncc2cc(NC(=O)N3c4nc(-c5cccc(N6CCCC6)c5)ccc4N4CC[C@H]3C4)ccc21 [Example 207] | – | – | – | ≥ 150% | A (EC1.5<1 μM)
